Experimental data: article PMC8836147, “Design, Synthesis and Antifungal/Nematicidal Activity of Novel 1,2,4-Oxadiazole Derivatives Containing Amide Fragments” (International Journal of Molecular Sciences, 2022)

Experiments:
[1] = system: B. cinerea; test: In vitro mycelium growth inhibition test; assay type: cell-based; conditions: Botrytis cinerea; 50 μg/mL; mycelial growth; mean ± SD of three replicates; read-out: Inhibition Rate (%) B. cinerea
Protocol: (§1) B. cinerea and S. scleotiorum were kindly provided by the Department of Pesticides, College of Plant Protection, Nanjing Agricultural University (Nanjing, China). All compounds were evaluated for mycelium growth inhibition tests against the two plant pathogenic fungi mentioned in previous reports. These two fungi were inoculated on potato dextrose agar (PDA) plates and were grown in biochemical incubators at 25 ± 1 °C for 2–4 days. The new mycelium was used to determine the antifungal activity. The target compounds were dissolved in 100 µL DMF, and they were then added into the PDA media to make the concentration 50 µg/mL. Mycelia dishes of about 5 mm in diameter were cut from the culture medium. Mycelium were picked up with a sterile inoculation needle, and the sample was inoculated in the middle of a PDA plate in a sterile environment. Afterwards, a preliminary screening of fungal activity was performed. […] Each test was carried out three times. The radial growth of the fungal colonies was gauged and recorded when the diameters of the blank control mycelia reached 5.0–5.5 cm. […] The final data were analyzed using SPSS v.25.0 (IBM, New York, NY, USA). The following formula was used to calculate the fungi inhibition rate. Inhibition rate (%) = [(Mycelium diameter of negative control − Mycelium diameter of treatment)/(Mycelium diameter of negative control − 0.5)] × 100%(1)

[2] = system: S. sclerotiorum; test: In vitro mycelium growth inhibition test; assay type: cell-based; conditions: Sclerotinia sclerotiorum; 50 μg/mL; mycelial growth; mean ± SD of three replicates; read-out: Inhibition Rate (%) S. sclerotiorum
Protocol: as §1

[3] = system: A. besseyi; test: microbe, parasite or virus in culture; conditions: Aphelenchoides besseyi, 48 h, read-out: Corrected Mortality Rate ± SD (%) A. besseyi
Description: (§2) M. incognita (parasitic on tomato plants), A. besseyi (potato dextrose agar–Botrytis cinerea breeding), B. xylophilus (potato dextrose agar–Botrytis cinerea breeding), and C. elegans (nematode growth medium–inactivated Escherichia coli OP50 cultivation) were provided by the Fine Chemical Research and Development Center of Guizhou University (Guizhou, China). The methodology used for the nematocidal bioassays of these target compounds was modified in the light of the conventional methods reported in the previously published literature. The nematicidal activity of the target compounds against four nematodes was determined using 48-well biochemical culture dishes. All of the compounds were dissolved with 100 μL DMF and were diluted with 1% Tween-80 to obtain 200 and 50 μg/mL concentrations for the bioassays. Fosthiazate and tioxazafen were used as positive controls at the same concentrations, and a negative control group was prepared without compounds using the same methodology. An amount of 10 µL of nematode suspension (about 50 nematodes) and 300 µL of the trial solution were added to corresponding hole, and each treatment was set to three repetitions. All of the 48-well plates were placed in a biochemical incubator at 27 °C for dark light culture. […] Corrected mortality (%) = [(mortality of treatment % − mortality of negative control %)/(1 − mortality of negative control %)] × 100%(3)

[4] = system: C. elegans; test: microbe, parasite or virus in culture; conditions: Caenorhabditis elegans, 48 h, read-out: Corrected Mortality Rate ± SD (%) C. elegans
Description: as §2

[5] = system: M. incognita; test: microbe, parasite or virus in culture; conditions: Meloidogyne incognita, 48 h, read-out: Corrected Mortality Rate ± SD (%) M. incognita
Description: as §2

[6] = system: B. xylophilus; test: microbe, parasite or virus in culture; conditions: Bursaphelenchus xylophilus, 48 h, read-out: Corrected Mortality Rate ± SD (%) B. xylophilus
Description: as §2

| Compound | inhibition at 50 µg/mL [1] [%] | inhibition at 50 µg/mL [2] [%] | mortality at 50 µg/mL [3] [%] | mortality at 200 µg/mL [3] [%] | mortality at 50 µg/mL [4] [%] | mortality at 200 µg/mL [4] [%] | mortality at 50 µg/mL [5] [%] | mortality at 200 µg/mL [5] [%] | mortality at 50 µg/mL [6] [%] | mortality at 200 µg/mL [6] [%] |
| --- | --- | --- | --- | --- | --- | --- | --- | --- | --- | --- |
| O=C(NCCc1ncc(C(F)(F)F)cc1Cl)c1nc(-c2ccccc2)no1 [Compound F2, N-(2-(3-chloro-5-(trifluoromethyl)pyridin-2-yl)ethyl)-3-phenyl-1,2,4-oxadiazole-5-carboxamide] | 23.6 ± 0.6 | 48.6 ± 1.6 | 0 | 15.1 ± 1.6 | 10.3 ± 1.4 | 46.7 ± 2.6 | 7.4 ± 3.2 | 42.6 ± 3.6 | 0 | 5.5 ± 1.6 |
| Cc1ccc(-c2noc(C(=O)NCCc3ccccn3)n2)cc1 [Compound F5, N -(2-(pyridin-2-yl)ethyl)-3-(p-tolyl)-1,2,4-oxadiazole-5-carboxamide] | 24.9 ± 1.6 | 56.3 ± 1.2 | 0 | 22.5 ± 3.2 | 67.9 ± 2.3 | 94.6 ± 1.7 | 3.5 ± 1.3 | 35 ± 2.2 | 0 | 8.1 ± 2.2 |
| O=C(NCCc1ncc(C(F)(F)F)cc1Cl)c1nc(-c2ncc(C(F)(F)F)cc2Cl)no1 [Compound F22] | 45.2 ± 0.9 | 37.6 ± 1.9 | 0 | 26.5 ± 2.1 | 45.7 ± 2.3 | 80.2 ± 1.5 | 0 | 18.3 ± 1.7 | 0 | 17.1 ± 2.2 |
| O=C(NCCc1ccccn1)c1nc(-c2cccs2)no1 [Compound F13, N -(2-(pyridin-2-yl)ethyl)-3-(thiophen-2-yl)-1,2,4-oxadiazole-5-carboxamide] | 27.3 ± 0.4 | 41.1 ± 0.1 | 0 | 21.7 ± 2.4 | 70.4 ± 2.6 | 100 | 0 | 11.6 ± 1.1 | 0 | 9.1 ± 1.5 |
| O=C(NCCc1ccccn1)c1nc(-c2ccc(Br)nc2)no1 [Compound F17] | 27.6 ± 1.4 | 10.1 ± 1.2 | 0 | 20.2 ± 1.2 | 54.2 ± 3.1 | 89.7 ± 1.5 | 0 | 33.5 ± 1.4 | 0 | 14.1 ± 1.9 |
| O=C(NCc1ccc(F)cc1F)c1nc(-c2ccc(Cl)cc2)no1 [Compound F11, 3-(4-chlorophenyl)-N-(2,4-difluorobenzyl)-1,2,4-oxadiazole-5-carboxamide] | 44.2 ± 1.2 | 44.9 ± 0.9 | 0 | 19.8 ± 2.1 | 10.6 ± 1.3 | 73.6 ± 1.7 | 24.8 ± 2.2 | 93.2 ± 2.1 | 0 | 23.2 ± 2.1 |
| O=C(Nc1ccc(Cl)cc1Cl)c1nc(-c2ccc(Br)nc2)no1 [Compound F20] | 55.8 ± 0.1 | 13.8 ± 0.5 | 0 | 26.4 ± 2.5 | 81.4 ± 1.5 | 100 | 8.6 ± 2.2 | 41.2 ± 1.3 | 0 | 41.2 ± 1.3 |
| CCOP(=O)(SC(C)CC)N1CCSC1=O (stereo not shown) [Fosthiazate, fosthiazate, reference compound] |  |  | 6.1 ± 3.1 | 38.4 ± 1.9 | 100 | 100 | 91.4 ± 2.5 | 100 | 38.8 ± 1.3 | 72.4 ± 1.9 |
| O=C(NCCc1ncc(C(F)(F)F)cc1Cl)c1nc(-c2ccc(Br)nc2)no1 [Compound F18] | 55.9 ± 1.3 | 34.9 ± 1.1 | 0 | 23 ± 2.3 | 53.6 ± 2.4 | 90 ± 2.7 | 0 | 36.7 ± 2.1 | 0 | 15.1 ± 1.2 |
| O=C(Nc1ccc(Cl)cc1Cl)c1nc(-c2ncc(C(F)(F)F)cc2Cl)no1 [Compound F24] | 38.5 ± 0.5 | 1.8 ± 0.8 | 0 | 23.4 ± 1.6 | 9.6 ± 1.1 | 24.6 ± 1.4 | 0 | 18.5 ± 1.1 | 0 | 21.2 ± 1.5 |
| O=C(Nc1ccc(Cl)cc1Cl)c1nc(-c2ccc(Cl)cc2)no1 [Compound F12, 3-(4-chlorophenyl)-N-(2,4-dichlorophenyl)-1,2,4-oxadiazole-5-carboxamide] | 29.1 ± 1.4 | 24.8 ± 1.4 | 0 | 18.8 ± 1.1 | 8.6 ± 1.6 | 47.6 ± 1.2 | 13.8 ± 2.3 | 54.8 ± 2.5 | 0 | 20.8 ± 2.5 |
| c1ccc(-c2noc(-c3cccs3)n2)cc1 [Tioxazafen, tioxazafen, reference compound] |  |  | 8.8 ± 2.4 | 61.4 ± 1.7 | 90.4 ± 0.7 | 100 | 12.6 ± 3.2 | 23.9 ± 3.3 | 0 | 13.5 ± 1.2 |
| Cc1ccc(-c2noc(C(=O)Nc3ccc(Cl)cc3Cl)n2)cc1 [Compound F8, N-(2,4-dichlorophenyl)-3-(p-tolyl)-1,2,4-oxadiazole-5-carboxamide] | 22.7 ± 1.3 | 21.1 ± 1.7 | 0 | 6.1 ± 1.2 | 47.6 ± 1.7 | 77.6 ± 1.2 | 4.9 ± 2.1 | 23.9 ± 3.3 | 0 | 18.1 ± 1.2 |
| O=C(NCc1ccc(F)cc1F)c1nc(-c2ccc(Br)nc2)no1 [Compound F19] | 42.2 ± 0.2 | 35.8 ± 0.8 | 0 | 23.5 ± 2.6 | 64.1 ± 1.2 | 93.5 ± 2.6 | 7.9 ± 1.2 | 30.7 ± 1.1 | 0 | 30.7 ± 1.1 |
| Cc1ccc(-c2noc(C(=O)NCc3ccc(F)cc3F)n2)cc1 [Compound F7, N-(2,4-difluorobenzyl)-3-(p-tolyl)-1,2,4-oxadiazole-5-carboxamide] | 46.4 ± 0.8 | 56.4 ± 0.1 | 0 | 12.2 ± 2.1 | 68.2 ± 2.3 | 91.9 ± 2.5 | 5.3 ± 1.1 | 24.9 ± 3.2 | 0 | 28.1 ± 2.4 |
| O=C(Nc1ccc(Cl)cc1Cl)c1nc(-c2ccccc2)no1 [Compound F4, N-(2,4-dichlorophenyl)-3-phenyl-1,2,4-oxadiazole-5-carboxamide] | 20.9 ± 0.1 | 31.2 ± 0.7 | 0 | 11.7 ± 1.4 | 71.4 ± 2.2 | 98.4 ± 2.3 | 5.9 ± 1.3 | 23.2 ± 1.4 | 0 | 25.3 ± 1.7 |
| O=C(NCc1ccc(F)cc1F)c1nc(-c2ncc(C(F)(F)F)cc2Cl)no1 [Compound F23] | 41.5 ± 0.5 | 34.6 ± 0.1 | 0 | 21.5 ± 2.2 | 10.6 ± 1.2 | 27.6 ± 1.2 | 0 | 19.1 ± 2.2 | 0 | 20.3 ± 1.4 |
